We go through one substance from paper PMC12992715, “Dual interference with host neuropeptide signaling allows parasitoid wasp to hijack host sugar metabolism” (The EMBO Journal, 2025).

For assay [1], the system named is P. xylostella larvae. Kind of assay: Circulating haemolymph trehalose after injection of synthetic sNPF peptides, venom, CvBV or teratocyte content. It counts as in vivo, Plutella xylostella. As to conditions: words. On the procedure:
Microinjections were performed under a Stemi 2000C microscope (Zeiss) using glass capillary injection needles and an Eppendorf Femtojet (Eppendorf) with a microcontroller (Narishige). To confirm the function of bovine insulin on hosts, 1 μg bovine insulin (Sigma-Aldrich, I0305000) was injected into the middle 3rd instar P. xylostella larvae. To identify the effect of each parasitic factor on hosts, 0.05 FE CvBV or 0.05 VRE venom was injected into the abdomen of the middle 3rd instar P. xylostella larva (Wang et al, [2018]; Yu et al, [2007]). 1 TE teratocytes’ content was microinjected into the early 4th instar P. xylostella larvae. To confirm the function of each synthetic sNPF peptide, 0.005 ng, 0.05 ng, or 0.5 ng of each peptide was injected into the middle 3rd instar P. xylostella larvae in a volume of 0.1 μl/per larva once per day for 3 consecutive days.
For P. xylostella larvae, 1 μl of haemolymph from the moth was diluted 60-fold in cold PBS and subjected to trehalose determination. The fat body of P. xylostella larvae was homogenised in 200 μl of cold PBS. Half of the homogenate was centrifuged at 13,000 rpm for 15 min, and the supernatant was used for protein content determination by Bradford Reagent (Invitrogen). The rest was heated at 70 °C for 5 min followed by centrifuging at 13,000 rpm for 15 min, and the supernatant was used for glycogen determination.
Trehalose content determination was performed by the anthrone sulfate method. 15 μL of the sample was incubated with 15 μL of 1% H2SO4 at 90 °C for 10 min, then 15 μL of 30% KOH was added and incubated at 90 °C for 10 min. Finally, 300 μl of 0.2% anthrone (Sigma-Aldrich) solution in 96% H2SO4 was added and incubated at 90 °C for 10 min. All reactions were stopped by immersion in ice. To create a trehalose standard curve, 15 μl of trehalose standards (Sigma-Aldrich) were treated similarly as a sample. Finally, 100 μl of each sample was added to a 96-well plate. The absorbance of samples was then measured at 630 nm on a SpectraMax® iD5 Multi-Mode Microplate Reader (Molecular Devices), and the trehalose levels were calculated based on the standard curve and normalised by protein content or sample volume.

The subject of assay [2] is PxsNPFR. The assay can be described thus: cAMP-Glo assay: inhibition of forskolin-induced cAMP accumulation in PxsNPFR-expressing HEK293 cells. The class given is cell-based, Plutella xylostella. On the technique in general: Changes in cAMP serve as a functional read-out for many G protein-coupled receptors.
Protocol: Cells were treated with 10 μM forskolin and various concentrations of the indicated peptide for 15 min at 37 °C (n = 3). […] Data are represented as mean ± SEM. *P<0.05, **P< 0.01, ***P< 0.005, not shown P > 0.05. […] (A) Two-tailed unpaired Student’s t test; (B–H) one-way ANOVA and Tukey’s multiple comparison tests.
Measurement of cyclic AMP in the HEK293/PxsNPFR cell line was accomplished with the cAMP-Glo™ Assay (Promega) according to the manufacturer’s instructions. Cells were seeded into the 96-well tissue culture plate (Thermo) overnight to grow at a recommended cell density (2500-10,000 cells/well). For the assay, cells were washed three times with PBS and then stimulated with 10 μM forskolin (Beyotime, added with 500 μM IBMX, Sigma-Aldrich) alone or 10 μM forskolin (added with 500 μM IBMX) with the indicated concentrations of synthetic sNPF for 15 min at room temperature. To generate a cAMP standard curve, cAMP standards supplied with the kit were prepared in a separate 96-well. Chemiluminescent signals were measured for 1 s/well on a SpectraMax iD5 Multi-Mode Microplate Reader (Molecular Devices).
The subject of assay [3] is P. xylostella larvae. The assay can be described thus: Feeding time and feeding interval time. The class given is in vivo, Plutella xylostella. To be noted: sPxsNPF-1-injected, middle 4th instar; words. An excerpt:
Appendix Figure S4. PxsNPF is mainly expressed in the CNS and midgut-trachea of the host as an appetite-suppressing hormone
(A) Relative mRNA levels of PxsNPF in different tissues of non-parasitized and C. vestalis-parasitized host larvae at late 3rd instar (n = 3). (B) Left: schematic diagram of the general composition and cell types of the midgut. EC, enterocyte; ISC, intestinal stem cell; EB, enteroblast; EE, enteroendocrine cell; BM, basement membrane; VM, visceral muscle. Right: PxsNPF (red) is expressed in the tracheae of the midgut (white arrowheads). Nuclei were labelled by DAPI (blue). NP: non-parasitized hosts, P: parasitized hosts. Scale bars, 200 μm. (C) Immunostaining of PxsNPF prepropeptide (red) in the whole midgut of non-parasitized and parasitized P. xylostella larvae at late 3rd-instar. White dashed boxes indicate areas magnified in Fig.
5E. Nuclei were labelled by DAPI (blue). Scale bar: 500 μm. (D) Feeding time (left, n = 40 for grey, n = 23 for blue, n = 54 for red, n = 29 for purple) and interval time (right, n = 35 for grey, n = 13 for blue, n = 33 for red, n = 25 for purple) of non-parasitized, C. vestalis-parasitized, and sPxsNPF-1-injected and sCvsNPF-injected P. xylostella larvae at middle 4th-instar during feeding behaviour. Data are represented as […]
Two-tailed unpaired Student’s t-test, except for (D) (One-way ANOVA and Tukey’s multiple comparison tests). […]

No end group written: not given here.

On to “SVRSPSRRLRF-NH2 [sPxsNPF-1, synthetic short neuropeptide F-1 of Plutella xylostella]”, for which, in assay [1] (0.005, 0.05, 0.5 ng per larva), the “effect on haemolymph trehalose level, dose dependence” value is given as “dependent on the concentration”. For the same substance, the “effect on haemolymph trehalose level” value in assay [1] (synthetic PxsNPFs, injected into 3M larvae, measured at 4M, high dosage 0.5 ng per larva, n = 4-6) is given as “increased the haemolymph trehalose level”. In addition, the “inhibition of forskolin-stimulated cAMP accumulation” value in assay [2] (HEK293/PxsNPFR, 10 μM forskolin + 500 μM IBMX, 15 min, various peptide concentrations, result in words) was “an inhibitory effect was not observed”. In addition, the “G protein coupling of the peptide-PxsNPFR complex” value in assay [2] (conclusion from cAMP and Ca2+ assays, words) is on record as “regulates Gq protein-mediated signalling”. In assay [3], the feeding interval time entry is recorded as “longer” and the feeding time result is given as “unaffected”.
